Test results as given in US5426103A, “Certain macrocyclic lactam derivatives” (Ciba-Geigy Corporation, priority 1993, dated 1995).

What was measured:
plasma ANF = assay: effect on rat plasma ANF concentration in ANF-infused conscious rats; type: in vivo, rat (male Sprague-Dawley); conditions: about 1-10 mg/kg p.o., ANF infusion 450 ng/kg/min i.v.
Procedure: The effect of the compounds of the invention on rat plasma ANF concentration can be determined as follows:
Male Sprague-Dawley rats (275-390 g) are anesthetized with ketamine (150 mg/kg)/acepromazine (10%) and instrumented with catheters in the femoral artery and vein to obtain blood samples and infuse ANF, respectively. The rats are tethered with a swivel system and are allowed to recover for 24 hours before being studied in the conscious, unrestrained state.
In this assay, plasma ANF levels are determined in the presence and absence of NEP inhibition. On the day of study, all rats are infused continuously with ANF at 450 ng/kg/min. i.v. for the entire 5 hours of the experiment. Sixty minutes after beginning the infusion, blood samples for baseline ANF measurements are obtained (time 0) and the rats are then randomly divided into groups treated with the test compound or vehicle. Additional blood samples are taken 30, 60, 120, 180 and 240 minutes after administration of the test compound.
Plasma concentrations are determined by a specific radioimmunoassay. […] The supermatant is decanted and the pellets counted in a gamma counter. […] Plasma ANF levels are expressed as a percent of those measured in vehicle-treated animals which received ANF alone (450 ng/kg/min i.v.).

[1] = tested on: DOCA-salt hypertensive rats; assay: antihypertensive effect in DOCA-salt hypertensive rats; type: in vivo; conditions: DOCA-salt hypertensive rat, 30 mg/kg p.o. in 3% corn starch
Procedure: The antihypertensive effect can be determined in desoxycorticosterone acetate (DOCA)-salt hypertensive rats. DOCA-salt hypertensive rats (280-380 g) are prepared by the standard method. Rats underwent a unilateral nephrectomy and one week later are implanted with silastic pellets containing 100 mg/kg of DOCA. The rats are maintained on 1% NaCl/0.2% KCl drinking water for three to five weeks until sustained hypertension is established. The antihypertensive activity is evaluated at this time. Two days before an experiment, the rats are anesthetized with methoxyflurane and instrumented with catheters in the femoral artery to measure arterial blood pressure. Forty-eight hours later, baseline arterial pressure and heart rate are recorded during a 1 hour period. The test compound (30 mg/kg p.o.) or vehicle is then administered and the same cardiovascular parameters are monitored for an additional 5 hours.

ANF-induced natriuresis = assay: potentiation of the natriuretic effect of ANF in anesthetized rats; type: in vivo, rat (male Sprague-Dawley); conditions: rat, 30 mg/kg in polyethylene glycol 400, intraduodenally; ANF 1 μg/kg i.v. bolus
Procedure: The potentiation of the natriuretic effect of ANF can be determined as follows: Male Sprague-Dawley rats (280-360 g) are anesthetized with Inactin (100 mg/kg i.p.) and instrumented with catheters in the femoral artery, femoral vein and urinary bladder to measure arterial pressure, administer ANF and collect urine, respectively. A continuous infusion of normal saline (33 μl/min) is maintained throughout the experiment to promote diuresis and sodium excretion. The experimental protocol consists of an initial 15 minute collection period (designated as pre-control) followed by three additional collection periods. Immediately after completion of the pre-control period, test compound or vehicle is administered; nothing is done for the next 45 minutes. […] At the conclusion of this period, ANF is administered (1 μg/kg i.v. bolus) to all animals and arterial pressure and renal parameters are determined during two consecutive 15 minutes collection periods. Mean arterial pressure, urine flow and urinary sodium excretion are determined for all collection periods. Blood pressure is measured with a Gould p50 pressure transducer, urine flow is determined gravimetrically, sodium concentration is measured by flame photometry, and urinary sodium excretion is calculated as the product of urine flow and urine sodium concentration.

CC(=O)SC[C@H]1CCCCCC[C@H](C(=O)N2C[C@H](O)C[C@H]2C(=O)OCc2ccccc2)NC1=O [N-[[trans 3-(acetylthiomethyl)-2-oxo-1-azacyclodecan-10-yl]-carbonyl]-trans-4-hydroxy-L-proline benzyl ester]
increase in plasma ANF levels (plasma ANF): significant increases in plasma ANF levels
reduction in blood pressure [1]: significant reduction in blood pressure
potentiation of ANF-induced natriuresis (ANF-induced natriuresis): significant potentiation of ANF-induced natriuresis
